Measurements from patent US11440909B2, “10H-phenothiazine ferroptosis inhibitor as well as the preparative method and the use thereof” (CHENGDU HENGHAO INVESTMENT CO. LIMITED, priority 2018, dated 2022).

system: fibrosarcoma cell line HT1080; experiment: Ferroptosis screening model (MTT method), Erastin-induced ferroptosis; format: cell-based, human; conditions: HT1080, ferroptosis inducer Erastin, 72 h, average of three tests, read-out: EC50
In short: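 HT1080 cells adhered 24 h, then received compound plus Erastin ([…] final) for 72 h at 37 °C, 5% CO2, in triplicate. Viability by MTT with SDS solubilisation, absorbance at 570 nm; inhibition of ferroptosis fitted to give EC50.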

EC50 [nM]	SMILES
129	CC(c1ccc2c(c1)Nc1ccccc1S2)S(=O)(=O)N1CCN(C(=O)c2ccc3c(c2)OCCO3)CC1 (stereo not shown) [Compound C19, (4-((1-(10H-phenothiazin-2-yl)ethyl)sulfonyl)piperazin-1-yl)(2,3-dihydrobenzo[b][1,4]dioxane-6-yl)ketone]
730	COc1ccccc1N1CCN(S(=O)(=O)C(C)c2ccc3c(c2)Nc2ccccc2S3)CC1 (stereo not shown) [Compound C22, 2-(1-((4-(2-methoxylphenyl)piperazin-1-yl)sulfonyl)ethyl)-10H-phenothiazine]
417	CC(c1ccc2c(c1)Nc1ccccc1S2)S(=O)(=O)N1CCN(c2ccccc2)CC1 (stereo not shown) [Compound C24, 2-(1-((4-phenylpiperazin-1-yl)sulfonyl)ethyl)-10H-phenothiazine]

Second part, the compound before the results:

SMILES	EC50 [nM]
C=C(c1ccc(C(=O)N2CCOCC2)cc1)c1ccc2c(c1)Nc1ccccc1S2 [Compound B47, (4-(1-(10H-phenothiazin-2-yl)ethenyl)phenyl)(morpholine)ketone]	24
C=C(c1cnc(N2CCOCC2)nc1)c1ccc2c(c1)Nc1ccccc1S2 [Compound B51, 4-(5-(1-(10H-phenothiazin-2-yl)ethenyl)pyrimidin-2-yl)morpholine]	10

same assay, conditions: Homo sapiens, HT-1080, 72 h, HT1080, ferroptosis inducer Erastin, 72 h, average of three tests, read-out: EC50

EC50 [nM]	SMILES
68	CC(c1ccc2c(c1)Nc1ccccc1S2)S(=O)(=O)N1CCOCC1 (stereo not shown) [Compound C1, 4-((1-(10H-phenothiazin-2-yl)ethyl)sulfonyl)morpholine]
34	CC(c1ccc2c(c1)Nc1ccccc1S2)S(=O)(=O)N1CCN(C)CC1 (stereo not shown) [Compound C2, 2-(1-((4-methylpiperazin-1-yl)sulfonyl)ethyl)-10H-phenothiazine]
9	CC(c1ccc2c(c1)Nc1ccccc1S2)S(=O)(=O)N1CCCN(C)CC1 (stereo not shown) [Compound C3, 2-(1-((4-methyl-1,4-homopiperazin-1-yl)sulfonyl)ethyl)-10H-phenothiazine]
29	CC(C)N1CCN(S(=O)(=O)C(C)c2ccc3c(c2)Nc2ccccc2S3)CC1 (stereo not shown) [Compound C4, 2-(1-((4-isopropylpiperazin-1-yl)sulfonyl)ethyl)-10H-phenothiazine]
35	CC(c1ccc2c(c1)Nc1ccccc1S2)S(=O)(=O)N1CCN(Cc2ccc3c(c2)OCO3)CC1 (stereo not shown) [Compound C5, 2-(1-((4-(benzo[d][1,3]dioxa-5-ylmethyl)piperazin-1-yl)sulfonyl)ethyl)-10H-phenothiazine]
185	CC(c1ccc2c(c1)Nc1ccccc1S2)S(=O)(=O)N1CCN(CC(=O)N2CCCC2)CC1 (stereo not shown) [Compound C6, 2-(4-((1-(10H-phenothiazin-2-yl)ethyl)sulfonyl)piperazin-1-yl)-1-(pyrrolin-1-yl)-1-ethanone]
46	CC(c1ccc2c(c1)Nc1ccccc1S2)S(=O)(=O)N1CCN(CCCN(C)C)CC1 (stereo not shown) [Compound C7, 3-(4-((1-(10H-phenothiazin-2-yl)ethyl)sulfonyl)piperazin-1-yl)-N,N-dimethylpropan-1-amine]
85	CC(c1ccc2c(c1)Nc1ccccc1S2)S(=O)(=O)N1CCN(CCc2ccccc2)CC1 (stereo not shown) [Compound C9, 2-(1-((4-phenethylpiperazin-1-yl)sulfonyl)ethyl)-10H-phenothiazine]
17	CCN1CCN(S(=O)(=O)C(C)c2ccc3c(c2)Nc2ccccc2S3)CC1 (stereo not shown) [Compound C10, 2-(1-((4-ethylpiperazin-1-yl)sulfonyl)ethyl)-10H-phenothiazine]
269	CC(c1ccc2c(c1)Nc1ccccc1S2)S(=O)(=O)N1CCN(C(=O)C2CCCO2)CC1 (stereo not shown) [Compound C11, (4-((1-(10H-phenothiazin-2-yl)ethyl)sulfonyl)piperazin-1-yl)(tetrahydrofuran-2-yl)ketone]
76	CC(c1ccc2c(c1)Nc1ccccc1S2)S(=O)(=O)N1CCN(CCN2CCOCC2)CC1 (stereo not shown) [Compound C12, 4-(2-(4-((1-(10H-phenothiazin-2-yl)ethyl)sulfonyl)piperazin-1-yl)ethyl)morpholine]
62	CC(c1ccc2c(c1)Nc1ccccc1S2)S(=O)(=O)N1CCN(CCO)CC1 (stereo not shown) [Compound C13, 2-(4-((1-(10H-phenothiazin-2-yl)ethyl)sulfonyl)piperazin-1-yl)-1-ethanol]
260	CC(c1ccc2c(c1)Nc1ccccc1S2)S(=O)(=O)N1CC[C@@H](O)C1 (stereo partly shown) [Compound C14]
132	CC(=O)N1CCN(S(=O)(=O)C(C)c2ccc3c(c2)Nc2ccccc2S3)CC1 (stereo not shown) [Compound C15, 1-(4-((1-(10H-phenothiazin-2-yl)ethyl)sulfonyl)piperazin-1-yl)-1-ethanone]
35	CC(c1ccc2c(c1)Nc1ccccc1S2)S(=O)(=O)N1CCN(S(C)(=O)=O)CC1 (stereo not shown) [Compound C16, 2-(1-((4-(methylsulfonyl)piperazin-1-yl)sulfonyl)ethyl)-10H-phenothiazine]
5	CC(c1ccc2c(c1)Nc1ccccc1S2)S(=O)(=O)N1CCN(c2ccncc2)CC1 (stereo not shown) [Compound C17, 2-(1-((4-(pyridin-4-yl)piperazin-1-yl)sulfonyl)ethyl)-10H-phenothiazine]
79	CC(c1ccc2c(c1)Nc1ccccc1S2)S(=O)(=O)N1CCC(O)CC1 (stereo not shown) [Compound C18, 1-((1-(10H-phenothiazin-2-yl)ethyl)sulfonyl)-4-piperidinol]
31	CC(c1ccc2c(c1)Nc1ccccc1S2)S(=O)(=O)N1CCSCC1 (stereo not shown) [Compound C20, 2-(1-(thiomorpholinesulfonyl)ethyl)-10H-phenothiazine]
257	CC(c1ccc2c(c1)Nc1ccccc1S2)S(=O)(=O)N1CCCC1 (stereo not shown) [Compound C21]
620	CCOC(=O)C1CCN(S(=O)(=O)C(C)c2ccc3c(c2)Nc2ccccc2S3)CC1 (stereo not shown) [Compound C23]

The remaining lines, values behind:

SMILES	EC50 [nM]
C=C(c1cc(C(C)(C)C)cc(C(C)(C)C)c1)c1ccc2c(c1)Nc1ccccc1S2 [Compound B41, 2-(1-(3,5-di-t-butylphenyl)ethenyl)-10H-phenothiazine]	905
C=C(c1ccc(NC(C)=O)nc1)c1ccc2c(c1)Nc1ccccc1S2 [Compound B43, N-(5-(1-(10H-phenothiazin-2-yl)ethenyl)pyridin-2-yl)acetylamine]	4
C=C(c1ccc(N)nc1)c1ccc2c(c1)Nc1ccccc1S2 [Compound B44, 5-(1-(10H-phenothiazin-2-yl)ethenyl)pyridin-2-amine]	11
C=C(c1ccc(N2CCOCC2)nc1)c1ccc2c(c1)Nc1ccccc1S2 [Compound B45, 4-(5-(1-(10H-phenothiazin-2-yl)ethenyl)pyridin-2-yl)morpholine]	13
C=C(c1ccc2c(c1)Nc1ccccc1S2)c1ccc(C(=O)Nc2ccc(CN3CCN(C)CC3)c(C(F)(F)F)c2)cc1C [Compound B46, 4-(1-(10H-phenothiazin-2-yl)ethenyl)-3-methyl-N-(4-((4-methylpiperazin-1-yl)methyl)-3-(trifluoromethyl)phenyl)benzamide]	10
C=C(c1ccc(C(=O)N2CCN(C)CC2)cc1)c1ccc2c(c1)Nc1ccccc1S2 [Compound B48, (4-(1-(10H-phenothiazin-2-yl)ethenyl)phenyl)(4-methylpiperazin-1-yl)ketone]	13
C=C(c1cnc(N2CCN(C)CC2)nc1)c1ccc2c(c1)Nc1ccccc1S2 [Compound B49, 2-(1-(2-(4-methylpiperazin-1-yl)pyrimidin-5-yl)ethenyl)-10H-phenothiazine]	2
C=C(c1cnc(N2CCCN(C)CC2)nc1)c1ccc2c(c1)Nc1ccccc1S2 [Compound B50, 2-(1-(2-(4-methyl-1,4-homopiperazin-1-yl)pyrimidin-5-yl)ethenyl)-10H-phenothiazine]	4
C=C(c1ccc(S(=O)(=O)NC2CCOCC2)cc1)c1ccc2c(c1)Nc1ccccc1S2 [Compound B52, 4-(1-(10H-phenothiazin-2-yl)ethenyl)-N-(tetrahydro-2H-pyran-4-yl)benzenesulfonamide]	11
C=C(c1cccc(S(=O)(=O)NC(C)(C)C)c1)c1ccc2c(c1)Nc1ccccc1S2 [Compound B53, 3-(1-(10H-phenothiazin-2-yl)ethenyl)-N-(t-butyl)Benzenesulfonamide]	148
C=C(c1ccc(S(=O)(=O)N2CCCC2)cc1)c1ccc2c(c1)Nc1ccccc1S2 [Compound B54, 2-(1-(4-(pyrrolin-1-ylsulfonyl)phenyl)ethenyl)-10H-phenothiazine]	32
C=C(c1cccc(S(=O)(=O)NC2CCOCC2)c1)c1ccc2c(c1)Nc1ccccc1S2 [Compound B55, 3-(1-(10H-phenothiazin-2-yl)ethenyl)-N-(tetrahydro-2H-pyran-4-yl)benzenesulfonamide]	12
C=C(c1ccc(S(=O)(=O)NCC2CCOCC2)cc1)c1ccc2c(c1)Nc1ccccc1S2 [Compound B56, 4-(1-(10H-phenothiazin-2-yl)ethenyl)-N-((tetrahydro-2H-pyran-4-yl)methyl)Benzenesulfonamide]	22
C=C(c1ccc(S(=O)(=O)N2CCOCC2)cc1)c1ccc2c(c1)Nc1ccccc1S2 [Compound B57, 4-((4-(1-(10H-phenothiazin-2-yl)ethenyl)phenyl)sulfonyl)morpholine]	34
C=C(c1ccc(S(=O)(=O)NC2CCC2)cc1)c1ccc2c(c1)Nc1ccccc1S2 [Compound B58, 4-(1-(10H-phenothiazin-2-yl)ethenyl)-N-cyclobutylbenzenesulfonamide]	66
C=C(c1ccc(S(=O)(=O)NC2CCN(C)CC2)cc1)c1ccc2c(c1)Nc1ccccc1S2 [Compound B59, 4-(1-(10H-phenothiazin-2-yl)ethenyl)-N-(1-methylpiperidin-4-yl)Benzenesulfonamide]	0.2
CC(c1ccc2c(c1)Nc1ccccc1S2)S(=O)(=O)N1C2CCC1CC(O)C2 (stereo not shown) [Compound C8, 8-((1-(10H-phenothiazin-2-yl)ethyl)sulfonyl)-8-azabicyclo[3.2.1]-3-octanol]	46

same assay, conditions: Homo sapiens, HT-1080, HT1080, ferroptosis inducer Erastin, 72 h, average of three tests, read-out: EC50

SMILES	EC50 [nM]
C=C(c1ccc2c(c1)Nc1ccccc1S2)c1cc(OC)c(OC)c(OC)c1 [Compound B42, 2-(1-(3,4,5-trimethoxylphenyl)ethenyl)-10H-phenothiazine]	45
